The text below walks through data of patent US5595969A, “Variants of human corticosteroid binding globulin” (Allelix Biopharmaceutical Inc., priority 1995, dated 1997).

Where a chain is given by its changes, count along the chain named.

For assay [1], the target named is T1, human corticosteroid binding globulin (CBG) variant glycosylated at positions 74 and 238 (Homo sapiens, UniProt P08185, N176Q/N31Q/N330Q/N369Q).
T1 construct: in order to isolate a full-length CBG cDNA; made in house; host or cells: CHO cells (CHO pro), measured in culture medium
T1 sequence (P08185 23-405 N31Q/N176Q/N330Q/N369Q): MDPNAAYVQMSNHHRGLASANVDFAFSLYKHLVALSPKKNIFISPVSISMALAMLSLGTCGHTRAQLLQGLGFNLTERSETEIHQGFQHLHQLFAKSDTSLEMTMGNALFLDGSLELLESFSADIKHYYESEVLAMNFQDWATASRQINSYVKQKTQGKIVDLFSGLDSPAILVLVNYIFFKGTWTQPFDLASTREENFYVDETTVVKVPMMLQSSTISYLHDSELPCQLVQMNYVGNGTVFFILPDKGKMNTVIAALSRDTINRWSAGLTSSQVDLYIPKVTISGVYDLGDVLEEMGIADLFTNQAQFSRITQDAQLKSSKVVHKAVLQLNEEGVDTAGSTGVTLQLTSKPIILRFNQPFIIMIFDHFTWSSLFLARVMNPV
The assay is described as follows: Affinity for cortisol by Scatchard analysis, [3H]-cortisol with increasing unlabelled cortisol. The following applies: concentrated CHO culture media. The protocol: (§1) The steroid binding capacity of the CBG variants in the culture media was measured by saturation analysis using as a labelled ligand [^3 H]-cortisol (55.8 Ci/mmol) obtained from DuPont, and dextran-coated charcoal as a separation agent as described by Hammond et al. in Clin. Chim. Acta, 1983, 132:101.
(§2) Initially, samples of culture media were added to tubes of PBS containing [^3 H]-cortisol. The mixture in the tubes was vortex mixed and incubated at room temperature for 1 h followed by a further incubation in an ice-water for 15 min. Dextran-coated charcoal (DCC) suspension at 0° C. (1.25 g Norit "A"(Amend Drug and Chemical Co.) and 0.125 g Dextran T-70 (AB Pharmacia) in 0.01 mol/l phosphate-buffered saline containing 0.1% gelatin, pH7) was added to the tubes to bind excess labelled cortisol. The tubes were incubated for […] 0° C. After centrifugation at 3000 X g for 5 min at 4° C. to sediment the DCC, the supernatants were decanted into scintillation counting vials containing 4 ml Aqueous Counting Scintillant (Amersham), which were capped, shaken and counted for 10 min or until 10,000 cpm had accumulated. The binding capacity of the CBG variants was calculated in nmol/L after correction for dilution and the dissociation of bound complexes during the DCC treatment (12% for CBG).
(§3) The affinity of the CBG variants for cortisol was measured using the Scatchard analysis.

Assay [2] deals with T2, human corticosteroid binding globulin (CBG) variant glycosylated solely at position 238 (sites 9, 74, 154, 308, 347 disrupted, Asn to Gln) (Homo sapiens, UniProt P08185, N176Q/N31Q/N330Q/N369Q/N96Q).
T2 construct: made in house; host or cells: CHO cells (CHO pro), measured in culture medium
T2 sequence (P08185 23-405 N31Q/N96Q/N176Q/N330Q/N369Q): T1 sequence (P08185 23-405 N31Q/N176Q/N330Q/N369Q) with N74Q
Described as above. The following applies: concentrated CHO culture media, read-out: K8 (affinity for cortisol) (converted). The protocol: as §1, §2, §3

Assay [3] addresses T3, human corticosteroid binding globulin (CBG) variant Thr240 to Ala (glycosylation site 238 disrupted) (Homo sapiens, UniProt P08185, T262A).
T3 construct: in order to isolate a full-length CBG cDNA; made in house; host or cells: CHO cells (CHO pro), measured in culture medium
T3 sequence (P08185 23-405 T262A): T1 sequence (P08185 23-405 N31Q/N176Q/N330Q/N369Q) with Q9N, Q154N, T240A, Q308N, Q347N
The assay is described as follows: Steroid binding capacity by saturation analysis with [3H]-cortisol, dextran-coated charcoal. Conditions: CHO culture media. The method, then:
as §1, §2

For assay [4], the target named is T4, human corticosteroid binding globulin (CBG) variant Asn238 to Gln (glycosylation site 238 disrupted) (Homo sapiens, UniProt P08185, N260Q).
T4 construct: made in house; host or cells: CHO cells (CHO pro), measured in culture medium
T4 sequence (P08185 23-405 N260Q): T1 sequence (P08185 23-405 N31Q/N176Q/N330Q/N369Q) with Q9N, Q154N, N238Q, Q308N, Q347N
The assay is described as above. The following applies: CHO culture media. The protocol:
as §1, §2

The target in assay [5] is T5, human corticosteroid binding globulin (CBG), native (Homo sapiens, UniProt P08185).
T5 sequence (P08185 23-405): T1 sequence (P08185 23-405 N31Q/N176Q/N330Q/N369Q) with Q9N, Q154N, Q308N, Q347N
The following applies: 4° C., physiological pH; read-out: binding affinity of the natural cortisol ligand for CBG; cited from earlier work.

The target in assay [6] is T6, human corticosteroid binding globulin (CBG) variant glycosylated solely at position 74 (Homo sapiens, UniProt P08185, N176Q/N260Q/N31Q/N330Q/N369Q).
T6 construct: made in house; host or cells: CHO cells (CHO pro), measured in culture medium
T6 sequence (P08185 23-405 N31Q/N176Q/N260Q/N330Q/N369Q): T1 sequence (P08185 23-405 N31Q/N176Q/N330Q/N369Q) with N238Q
Put plainly: Steroid binding of CBG variant with [3H]-cortisol. Conditions: CHO culture media. The protocol: Chim. Acta, 1983, 132:101. Initially, samples of culture media were added to tubes of PBS containing [^3 H]-cortisol. The mixture in the tubes was vortex mixed and incubated at room temperature for 1 h followed by a further incubation in an ice-water for 15 min. Dextran-coated charcoal (DCC) suspension at 0° C. […] The tubes were incubated for […] 0° C. […] The binding capacity of the CBG variants was calculated in nmol/L after correction for dilution and the dissociation of bound complexes during the DCC treatment (12% for CBG). The affinity of the CBG variants for cortisol was measured using the Scatchard analysis. Prior to conducting the affinity measurement, the culture media was concentrated using *Centricon microconcentrators (Amicon).

With `C[C@]12CCC(=O)C=C1CC[C@@H]1[C@@H]2[C@@H](O)C[C@@]2(C)[C@H]1CC[C@]2(O)C(=O)CO` [cortisol], the “K4 (steroid-binding affinity)” value in assay [1] came to 1.9e+08 M⁻¹. The Kd was 9.09 nM in assay [2] and around 0.7 nM in assay [5]. Besides, the steroid-binding activity result in assay [3] was “complete loss of steroid-binding activity”; in assay [4], “complete loss of steroid-binding activity”; in assay [6], “no steroid-binding activity”.
